The values that follow come from ChEMBL document CHEMBL4602694, “Suppression of Drug-Resistant Non-Small-Cell Lung Cancer with Inhibitors Targeting Minichromosomal Maintenance Protein” (J Med Chem, 2020).

Calls of active or inactive are those of the source. No cut-off for these calls is given here.

Data set [1] addresses T1, DNA replication licensing factor MCM6 (Homo sapiens) (UniProt Q14566).
T1 sequence (whole entry): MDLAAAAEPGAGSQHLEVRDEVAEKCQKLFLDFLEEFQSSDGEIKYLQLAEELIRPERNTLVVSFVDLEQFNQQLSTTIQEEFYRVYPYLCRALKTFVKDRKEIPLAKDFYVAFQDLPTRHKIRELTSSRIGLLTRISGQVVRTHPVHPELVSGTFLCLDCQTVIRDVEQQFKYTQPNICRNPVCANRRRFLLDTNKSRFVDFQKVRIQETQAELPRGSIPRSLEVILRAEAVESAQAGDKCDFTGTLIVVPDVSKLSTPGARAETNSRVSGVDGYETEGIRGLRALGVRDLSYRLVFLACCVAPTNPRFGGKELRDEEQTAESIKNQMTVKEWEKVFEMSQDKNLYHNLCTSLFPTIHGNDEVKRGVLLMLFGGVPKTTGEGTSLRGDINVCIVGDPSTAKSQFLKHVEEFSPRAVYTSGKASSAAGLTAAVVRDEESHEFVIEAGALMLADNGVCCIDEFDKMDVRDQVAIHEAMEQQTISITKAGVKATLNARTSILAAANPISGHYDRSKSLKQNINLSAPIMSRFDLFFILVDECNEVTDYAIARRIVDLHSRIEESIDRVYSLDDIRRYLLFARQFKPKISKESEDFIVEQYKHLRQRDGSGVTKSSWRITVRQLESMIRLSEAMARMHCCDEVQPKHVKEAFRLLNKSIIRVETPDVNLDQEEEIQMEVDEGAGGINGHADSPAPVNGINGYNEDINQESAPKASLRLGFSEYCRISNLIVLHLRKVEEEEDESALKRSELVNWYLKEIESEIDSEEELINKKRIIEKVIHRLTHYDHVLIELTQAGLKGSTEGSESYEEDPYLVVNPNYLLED
Put plainly: Induction of ubiquitination of MCM6 in human NCI-H1975 cells incubated for 24 hrs by immunoblot analysis (reference value: 1). The class given is cell-based.

Data set [2] has as its system NCI-H1975. Nature of the data set: Induction of apoptosis in human NCI-H1975 cells assessed as increase in cleaved caspase 3 level at 140 nM incubated upto 72 hrs by immunoblotting analysis. It counts as functional, cell-based.
Data set [3] deals with DNA replication licensing factor MCM2 (Homo sapiens), P49736 [Q341A]. Nature of the data set: Induction of ubiquitination of FLAG-tagged MCM2 Q341A mutant (unknown origin) expressed in human 293T cells incubated for 4 hrs by magnetic beads technique based immunoblot analysis. It counts as cell-based. The settings on record: HEK-293T. Background: Immunoblotting shows a protein as a band on a membrane.

Data set [4] addresses T1, DNA replication licensing factor MCM6 (Homo sapiens). Put plainly: Induction of ubiquitination of MCM6 in human NCI-H1975 cells in presence of MG132 incubated for 48 hrs followed by MG132 addition and measured after 12 hrs by immunoblot analysis (reference value: 1.8). It counts as cell-based.
Data set [5] addresses DNA replication licensing factor MCM2 (Homo sapiens) (UniProt P49736). Put plainly: Induction of ubiquitination of MCM2 in human NCI-H1975 cells incubated for 72 hrs by immunoblot analysis (reference value: 1). It counts as cell-based.
The test system of data set [6] is NCI-H1975. Put plainly: Antiproliferative activity against human NCI-H1975 cells knock out SiRNA MCM2 assessed as reduction in cell viability incubated for 72 hrs by SRB assay relative to control. The class given is functional.
Data set [7] concerns the target T2, DNA replication licensing factor MCM3 (Homo sapiens) (UniProt P25205).
T2 sequence (whole entry): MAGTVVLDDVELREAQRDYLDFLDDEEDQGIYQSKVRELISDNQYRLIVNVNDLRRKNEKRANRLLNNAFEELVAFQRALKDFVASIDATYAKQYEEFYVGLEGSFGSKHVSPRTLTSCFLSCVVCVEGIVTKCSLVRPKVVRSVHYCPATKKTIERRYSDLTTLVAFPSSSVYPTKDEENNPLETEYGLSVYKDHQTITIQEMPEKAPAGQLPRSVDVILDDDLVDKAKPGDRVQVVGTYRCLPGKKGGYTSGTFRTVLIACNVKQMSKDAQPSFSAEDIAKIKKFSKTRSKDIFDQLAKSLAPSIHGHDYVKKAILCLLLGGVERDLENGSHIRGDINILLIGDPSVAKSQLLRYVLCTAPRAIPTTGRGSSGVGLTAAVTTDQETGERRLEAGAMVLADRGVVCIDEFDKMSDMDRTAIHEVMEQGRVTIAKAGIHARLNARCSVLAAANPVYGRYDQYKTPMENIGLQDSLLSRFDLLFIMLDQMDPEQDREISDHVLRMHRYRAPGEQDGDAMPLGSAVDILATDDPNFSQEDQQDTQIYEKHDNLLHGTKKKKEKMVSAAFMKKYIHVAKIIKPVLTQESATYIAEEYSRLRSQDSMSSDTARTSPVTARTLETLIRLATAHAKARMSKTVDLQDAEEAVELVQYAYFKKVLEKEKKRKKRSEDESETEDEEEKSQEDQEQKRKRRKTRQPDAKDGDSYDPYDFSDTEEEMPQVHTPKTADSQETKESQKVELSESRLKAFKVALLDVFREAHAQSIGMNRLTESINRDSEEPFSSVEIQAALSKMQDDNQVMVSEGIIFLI
Put plainly: Induction of ubiquitination of MCM3 in human NCI-H1975 cells incubated for 24 hrs by immunoblot analysis (reference value: 1). The class given is cell-based.

The nature of data set [8]: Toxicity in athymic nude BALB/c mouse xenografted with human NCI-H1975 cells assessed as reduction in body weight at 1 or 4 mg/kg, ip administered for 4 weeks. The class given is organism-based. The settings on record: in vivo, 672 h.
Data set [9] deals with NCI-H1975. Put plainly: Antiproliferative activity against human NCI-H1975 cells harboring FLAG-tagged MCM2 assessed as reduction in cell viability incubated for 72 hrs by SRB assay. The class given is functional, cell-based. The conditions noted are these: NCI-H1975, 72 h. On the technique in general: The SRB assay estimates cell density from bound dye.
The test system of data set [10] is NCI-H1975. Put plainly: Antitumor activity against human NCI-H1975 cells xenografted in athymic nude BALB/c mouse assessed as tumor growth inhibition at 1 mg/kg, ip administered for 4 weeks relative to control. The class given is functional. The settings on record: 672 h, read-out: TGI. A general note: A xenograft is tissue or cells of one species grown in another, often human tumour cells in immunodeficient mice.

Data set [11] deals with NCI-H1975. Nature of the data set: Antiproliferative activity against human NCI-H1975 cells harboring FLAG-tagged MCM2 Q341A mutant assessed as reduction in cell viability incubated for 72 hrs by SRB assay. It counts as functional, cell-based. The settings on record: NCI-H1975, 72 h.
For data set [12], the target named is DNA replication licensing factor MCM7 (Homo sapiens) (UniProt P33993). Nature of the data set: Induction of ubiquitination of MCM7 in human H3255 cells incubated for 24 hrs by immunoblot analysis. It counts as cell-based. The settings on record: NCI-H3255.
Data set [13] deals with DNA replication licensing factor MCM2 (Homo sapiens) (UniProt P49736). Put plainly: Induction of ubiquitination of MCM2 in human H3255 cells incubated for 24 hrs by immunoblot analysis. It counts as cell-based. The settings on record: NCI-H3255.
The target is the same in data set [14]. Nature of the data set: Induction of ubiquitination of MCM2 in human PC9 cells incubated for 24 hrs by immunoblot analysis. The class given is cell-based. The settings on record: PC-9.
Data set [15] addresses T1, DNA replication licensing factor MCM6 (Homo sapiens). Nature of the data set: Induction of ubiquitination of MCM6 in human H3255 cells incubated for 24 hrs by immunoblot analysis. The class given is cell-based. The settings on record: NCI-H3255.

Chain of DNA replication licensing factor MCM2 (Homo sapiens) (P49736 whole entry): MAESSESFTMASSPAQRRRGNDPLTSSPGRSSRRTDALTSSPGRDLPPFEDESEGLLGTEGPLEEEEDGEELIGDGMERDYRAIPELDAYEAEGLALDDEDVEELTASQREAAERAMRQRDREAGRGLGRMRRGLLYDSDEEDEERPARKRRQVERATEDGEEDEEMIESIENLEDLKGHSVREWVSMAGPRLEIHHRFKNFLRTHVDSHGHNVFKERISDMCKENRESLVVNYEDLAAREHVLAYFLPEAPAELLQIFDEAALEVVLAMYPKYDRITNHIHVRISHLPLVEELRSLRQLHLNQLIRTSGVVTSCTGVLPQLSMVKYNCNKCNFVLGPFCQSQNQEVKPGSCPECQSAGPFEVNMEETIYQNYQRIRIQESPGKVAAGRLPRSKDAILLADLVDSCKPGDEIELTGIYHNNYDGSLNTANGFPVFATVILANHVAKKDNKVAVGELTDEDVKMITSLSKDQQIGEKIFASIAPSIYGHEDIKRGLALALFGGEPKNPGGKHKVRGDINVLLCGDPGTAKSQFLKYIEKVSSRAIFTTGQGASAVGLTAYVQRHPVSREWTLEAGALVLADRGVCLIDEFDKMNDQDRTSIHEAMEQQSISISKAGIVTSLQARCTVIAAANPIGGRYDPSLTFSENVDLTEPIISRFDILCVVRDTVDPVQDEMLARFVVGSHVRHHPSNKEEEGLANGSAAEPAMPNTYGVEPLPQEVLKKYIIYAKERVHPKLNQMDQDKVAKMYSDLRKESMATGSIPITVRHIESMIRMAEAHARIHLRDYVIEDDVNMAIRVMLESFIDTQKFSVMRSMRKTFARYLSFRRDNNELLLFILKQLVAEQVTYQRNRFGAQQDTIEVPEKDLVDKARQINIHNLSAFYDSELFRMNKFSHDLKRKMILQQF
Chain of DNA replication licensing factor MCM2 (Homo sapiens), P49736 [Q341A] (P49736 whole entry Q341A): as the sequence (P49736 whole entry) above, with Q341A counted along it
Chain of DNA replication licensing factor MCM7 (Homo sapiens) (P33993 whole entry): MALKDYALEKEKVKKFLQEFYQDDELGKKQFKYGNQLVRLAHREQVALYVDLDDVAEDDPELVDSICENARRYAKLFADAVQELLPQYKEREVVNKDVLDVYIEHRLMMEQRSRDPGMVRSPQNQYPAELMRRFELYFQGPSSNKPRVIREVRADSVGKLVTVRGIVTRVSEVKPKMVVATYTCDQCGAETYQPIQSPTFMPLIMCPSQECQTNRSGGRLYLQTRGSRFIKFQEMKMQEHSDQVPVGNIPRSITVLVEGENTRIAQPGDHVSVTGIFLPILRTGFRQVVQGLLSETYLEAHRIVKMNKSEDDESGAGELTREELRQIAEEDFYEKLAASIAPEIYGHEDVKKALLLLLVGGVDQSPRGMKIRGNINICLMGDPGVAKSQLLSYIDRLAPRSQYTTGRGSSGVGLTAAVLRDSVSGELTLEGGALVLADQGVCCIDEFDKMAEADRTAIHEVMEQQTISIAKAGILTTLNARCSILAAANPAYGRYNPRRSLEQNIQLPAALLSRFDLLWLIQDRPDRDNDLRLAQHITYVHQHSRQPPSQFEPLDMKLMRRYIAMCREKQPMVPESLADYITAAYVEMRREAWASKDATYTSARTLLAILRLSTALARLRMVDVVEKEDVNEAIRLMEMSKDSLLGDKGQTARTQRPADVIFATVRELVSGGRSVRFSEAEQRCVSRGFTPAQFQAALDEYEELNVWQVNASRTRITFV

Broadly, the IC50 is the concentration that gives 50% inhibition. With `Cc1oc2c(c1C(=O)NCCCn1ccnc1)C(=O)c1ccccc1C2=O`, the Activity in data set [1] was 0.5; in data set [4], 0.5; in data set [5], 0.3; in data set [7], 1.1; in data set [8], “Non-Toxic”. Besides, the result (in the data set with NCI-H1975 [2]; in data set [3]; in data set [12]; in data set [13]; in data set [14]; in [15]) was Active. Moreover, in the data set on NCI-H1975 [6], the “inhibition (INH)” value is given as 33%. Also, the IC50 was 71 nM in the data set on NCI-H1975 [9] and 150 nM in the data set on NCI-H1975 [11]. For the same compound, in the data set with NCI-H1975 [10], the inhibition in vivo at 1 mg/kg came to 44%.
